Counter-ions that a name gives are not always drawn. Like-named read-outs stand apart in the source and are kept apart here. Where only a bound is given, the exact number is not on record here.

This assay deals with T1, calcium receptor (Homo sapiens, UniProt P41180).
T1 sequence (P41180 20-1078): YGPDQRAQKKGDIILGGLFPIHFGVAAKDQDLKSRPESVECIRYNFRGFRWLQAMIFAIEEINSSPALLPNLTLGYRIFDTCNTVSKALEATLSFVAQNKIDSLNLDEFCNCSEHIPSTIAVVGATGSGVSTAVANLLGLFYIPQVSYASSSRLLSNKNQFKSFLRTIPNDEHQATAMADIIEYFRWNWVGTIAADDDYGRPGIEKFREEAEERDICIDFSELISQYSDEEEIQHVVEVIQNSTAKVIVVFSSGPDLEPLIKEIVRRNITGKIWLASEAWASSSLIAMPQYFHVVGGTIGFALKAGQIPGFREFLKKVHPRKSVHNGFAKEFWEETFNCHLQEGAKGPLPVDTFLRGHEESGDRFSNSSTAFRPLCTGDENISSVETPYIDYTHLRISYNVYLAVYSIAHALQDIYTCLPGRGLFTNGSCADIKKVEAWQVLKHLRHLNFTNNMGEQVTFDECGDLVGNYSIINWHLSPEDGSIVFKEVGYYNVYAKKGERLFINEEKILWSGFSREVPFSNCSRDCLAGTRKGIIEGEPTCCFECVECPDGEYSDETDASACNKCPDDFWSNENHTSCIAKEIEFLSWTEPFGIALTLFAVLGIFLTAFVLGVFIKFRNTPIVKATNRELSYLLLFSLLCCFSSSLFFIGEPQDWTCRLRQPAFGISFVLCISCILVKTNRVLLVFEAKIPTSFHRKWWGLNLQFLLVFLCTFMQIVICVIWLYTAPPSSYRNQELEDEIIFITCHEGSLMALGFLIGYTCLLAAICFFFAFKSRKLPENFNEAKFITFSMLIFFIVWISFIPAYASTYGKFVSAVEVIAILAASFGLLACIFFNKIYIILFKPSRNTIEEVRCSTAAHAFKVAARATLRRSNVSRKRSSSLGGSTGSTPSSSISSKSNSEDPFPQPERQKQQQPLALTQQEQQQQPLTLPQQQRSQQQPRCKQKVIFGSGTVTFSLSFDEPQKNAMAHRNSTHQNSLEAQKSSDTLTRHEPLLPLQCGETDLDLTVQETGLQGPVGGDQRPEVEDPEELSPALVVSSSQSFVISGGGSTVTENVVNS
Description: EC50 (concentration evoking a half-maximal effect) at an inorganic ion receptor / calcium receptor. The format is cell-based. The source says: The EC50 is the concentration of the molecule which evokes a half-maximal effect. The IC50 is the concentration of molecule which causes a half-maximal blocking effect. The EC50 or IC50 can be determined by assaying one or more of the activities of an inorganic ion at an inorganic ion receptor. Preferably, such assays are specific to a particular calcium receptor. For example, assays which measure hormones whose production or secretion is modulated by a particular inorganic ion receptor are preferred.
Nemeth et al., PCT/US93/01642, International Publication Number WO 94/18959. For example, poly(A)^+ mRNA can be obtained from cells expressing a calcium receptor, such as a parathyroid cell, bone osteoclast, juxtaglomerular kidney cell, proximal tubule kidney cell, distal tubule kidney cell, cell of the thick ascending limb of Henle's loop and/or collecting duct, keratinocyte in the epidermis, parafollicular cell in the thyroid (C-cell), intestinal cell, central nervous cell, peripheral nervous system cell, trophoblast in the placenta, platelet, vascular smooth muscle cell, cardiac atrial cell, gastrin-secreting cell, glucagon-secreting cell, kidney mesangial cell, mammary cell, beta cell, fat/adipose cell, immune cell, and GI tract cell. Preferably, the nucleic acid is from a parathyroid cell, C-cell, or osteoclast. More preferably, the nucleic acid encodes a calcium receptor and is present on a plasmid or vector.

[1] abbreviates: concentration of the molecule which evokes a half-maximal effect, preferred agents, cell type and assay read-out not stated, read-out: EC50.

In general, EC50 refers to the concentration at which the effect is half-maximal. For the compound `CSc1cccc(C(C)NCCCc2ccccc2)c1` (racemic) [Compound 8J, N-(3-phenylpropyl)-1-(3-thiomethylphenyl)ethylamine hydrochloride], the EC50 under setting [1] is less than 5 µM. In the case of `COc1cccc([C@@H](C)NCCCc2ccccc2OC)c1` [Compound 8U, N-3-(2-methoxyphenyl)-1-propyl-(R)-3-methoxy-α-methylbenzylamine hydrochloride], the EC50 under setting [1] was less than 5 µM. Take `C[C@@H](N[C@H](C)c1cccc2ccccc12)c1ccc2ccccc2c1` [Compound 9R, (R)-N-(1-(2-naphthyl)ethyl)-(R)-1-(1-naphthyl)ethylamine hydrochloride]: under setting [1], the EC50 was less than 5 µM. Still for that read-out and setting: then `CC(C)c1ccc(CN[C@H](C)c2cccc3ccccc23)cc1` [Compound 11X, N-(4-Isopropylbenzyl)-(R)-1-(1-naphthyl)ethylamine hydrochloride], with less than 5 µM; and `COc1cccc([C@@H](C)NCCCc2ccccc2C)c1` [Compound 12U, N-3-(2-methylphenyl)-1-propyl-(R)-3-methoxy-α-methylbenzylamine hydrochloride], with less than 5 µM; and `COc1cccc([C@@H](C)NCCCc2cccc(C)c2)c1` [Compound 12V, N-3-(3-methylphenyl)-1-propyl-(R)-3-methoxy-α-methylbenzylamine hydrochloride], with less than 5 µM. As to `C[C@@H](NCCCc1ccccc1Cl)c1cccc2ccccc12` [Compound 12Z, N-3-(2-chlorophenyl)-1-propyl-(R)-1-(1-naphthyl)ethylamine hydrochloride], the EC50 was less than 5 µM. Consider `COc1ccc([C@@H](C)N[C@H](C)c2cccc3ccccc23)cc1` [Compound 14U, (R)-N-(1-(4-methoxyphenyl)ethyl)-(R)-1-(1-naphthyl)ethylamine hydrochloride], for which, under setting [1], the EC50 is less than 5 µM.

Turning to `COc1ccc(CN[C@H](C)c2cccc3ccccc23)cc1Cl` [Compound 16M, N-(3-chloro-4-methoxybenzyl)-(R)-1-(1-naphthyl)ethylamine hydrochloride], the EC50 under setting [1] was less than 5 µM.

On to `COc1ccc([C@@H](C)N[C@H](C)c2cccc3ccccc23)cc1C` [Compound 16P, (R)-N-(1-(4-Methoxy-3-methylphenyl)ethyl)-(R)-1-(1-naphthyl)ethylamine hydrochloride], for which the EC50 under setting [1] was less than 5 µM.
